Data published in article PMC10877631, “Retinylidene chromophore hydrolysis from mammalian visual and non-visual opsins” (The Journal of Biological Chemistry, 2024).

Tests used:
[1] = target: T1, bRGR (recombinant, 1D4-tagged) (Bos taurus, UniProt P47803); assay: UV-Vis pigment spectrum; NaBH4 trapping and LC-MS/MS of retinyl peptide; assay type: binding; details: covalent Schiff base at Lys256; LMNG micelles; before illumination
T1 construct: gene RGR; chromophore site given as Lys256
T1 sequence (P47803 1-291): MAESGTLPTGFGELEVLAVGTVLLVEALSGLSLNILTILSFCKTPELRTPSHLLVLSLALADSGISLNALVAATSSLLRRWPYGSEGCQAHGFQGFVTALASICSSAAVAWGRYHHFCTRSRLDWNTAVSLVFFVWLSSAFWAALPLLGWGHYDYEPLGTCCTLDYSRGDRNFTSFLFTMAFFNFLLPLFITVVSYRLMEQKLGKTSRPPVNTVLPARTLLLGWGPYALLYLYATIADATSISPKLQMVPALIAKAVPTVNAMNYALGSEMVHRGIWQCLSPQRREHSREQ

[2] = target: T2, native bRGR in bRPE microsomal membranes (Bos taurus, UniProt P47803); assay: NaBH4 trapping, proteinase K or pronase digestion, LC-MS/MS; assay type: binding; details: covalent Schiff base at Lys256; native bovine RPE microsomes; before illumination
T2 construct: gene RGR; native, untagged, in bovine RPE microsomal membranes; chromophore site given as Lys256
T2 sequence (P47803 1-291): T1 sequence (P47803 1-291)

[3] = target: T3, hBlue-cone opsin (Homo sapiens, UniProt P03999); assay: UV-Vis pigment spectrum; NaBH4 trapping and LC-MS/MS of retinyl peptide and retinyl-Lys; assay type: binding; details: covalent Schiff base to helix VII Lys; dark state; LMNG
T3 construct: gene OPN1SW; recombinant, purified in LMNG; details only in supplement
T3 sequence (P03999 1-345): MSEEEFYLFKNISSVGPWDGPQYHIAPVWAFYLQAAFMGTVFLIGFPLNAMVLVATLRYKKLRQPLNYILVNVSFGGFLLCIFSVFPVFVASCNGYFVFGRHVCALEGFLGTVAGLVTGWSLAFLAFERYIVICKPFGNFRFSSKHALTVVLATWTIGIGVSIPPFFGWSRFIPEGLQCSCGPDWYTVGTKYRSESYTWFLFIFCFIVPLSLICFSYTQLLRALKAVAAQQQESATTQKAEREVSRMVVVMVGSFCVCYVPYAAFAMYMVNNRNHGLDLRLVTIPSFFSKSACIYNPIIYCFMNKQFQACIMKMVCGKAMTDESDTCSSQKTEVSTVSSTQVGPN

[4] = target: T4, bRho (Bos taurus, UniProt P02699); assay: as above; assay type: binding; details: covalent Schiff base to helix VII Lys; dark state; LMNG
T4 construct: gene RHO; native, from bovine rod outer segments, purified in LMNG
T4 sequence (P02699 whole entry): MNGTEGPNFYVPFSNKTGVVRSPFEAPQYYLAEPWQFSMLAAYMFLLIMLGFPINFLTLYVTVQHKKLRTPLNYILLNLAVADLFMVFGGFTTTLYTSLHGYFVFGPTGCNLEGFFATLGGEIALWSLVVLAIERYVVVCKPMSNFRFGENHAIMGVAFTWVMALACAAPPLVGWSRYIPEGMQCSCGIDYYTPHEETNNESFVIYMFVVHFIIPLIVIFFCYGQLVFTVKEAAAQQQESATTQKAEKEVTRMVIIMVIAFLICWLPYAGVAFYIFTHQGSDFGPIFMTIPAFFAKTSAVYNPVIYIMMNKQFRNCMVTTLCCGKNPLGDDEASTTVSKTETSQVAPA

[5] = target: T2, native bRGR in bRPE microsomal membranes; assay: NaBH4 trapping, HPLC and LC-MS/MS after illumination; assay type: biochemical; details: photoisomerization at 530 nm, then Schiff-base hydrolysis; pH 7.4, 140 mM NaCl; native microsomes
[6] = target: T5, hRed-cone opsin (Homo sapiens, UniProt P04000); assay: UV-Vis pigment spectrum; NaBH4 trapping and LC-MS/MS of retinyl peptide and retinyl-Lys; assay type: binding; details: covalent Schiff base to helix VII Lys; dark state; LMNG
T5 construct: gene OPN1LW; recombinant, purified in LMNG; details only in supplement
T5 sequence (P04000 1-364): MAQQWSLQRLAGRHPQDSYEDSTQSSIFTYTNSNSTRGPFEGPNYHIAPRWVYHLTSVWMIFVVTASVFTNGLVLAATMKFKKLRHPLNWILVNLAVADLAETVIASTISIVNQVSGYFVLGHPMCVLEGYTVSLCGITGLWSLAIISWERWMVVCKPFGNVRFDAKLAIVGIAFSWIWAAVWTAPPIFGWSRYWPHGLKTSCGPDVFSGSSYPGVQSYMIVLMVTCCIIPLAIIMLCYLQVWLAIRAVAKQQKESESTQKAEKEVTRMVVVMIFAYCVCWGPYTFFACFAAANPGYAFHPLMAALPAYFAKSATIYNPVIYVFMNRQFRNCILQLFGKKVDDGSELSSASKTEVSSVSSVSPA

## CC1=C(/C=C/C(C)=C/C=C/C(C)=C/C=O)C(C)(C)CCC1 [all-trans-retinal]
[1]
  UV-Vis pigment spectrum; NaBH4 trapping and LC-MS/MS of retinyl peptide: recombinantly produced bRGR adducted with all-trans-retinal was immunopurified in lauryl maltose neopentyl glycol (LMNG) micelles
[2]
  NaBH4 trapping, proteinase K or pronase digestion, LC-MS/MS: Microsomal bRGR reconstituted with slight excess of all-trans-retinal was analyzed by LC-MS/MS

## CC1=C(/C=C/C(C)=C/C=C\C(C)=C\C=O)C(C)(C)CCC1 [11-cis-retinal]
[3]
  UV-Vis pigment spectrum; NaBH4 trapping and LC-MS/MS of retinyl peptide and reti: the resultant N^ε-retinyl-Lys was predominantly in the 11-cis configuration
[4]
  UV-Vis pigment spectrum; NaBH4 trapping and LC-MS/MS of retinyl peptide and reti: the resultant N^ε-retinyl-Lys was predominantly in the 11-cis configuration
[5]
  NaBH4 trapping, HPLC and LC-MS/MS after illumination: rapid hydrolytic production of 11-cis-retinal by bRGR in native membranes was recapitulated in this study
[6]
  UV-Vis pigment spectrum; NaBH4 trapping and LC-MS/MS of retinyl peptide and reti: the resultant N^ε-retinyl-Lys was predominantly in the 11-cis configuration
